Assay results as given in patent publication US20150374709A1, “TETRA-SUBSTITUTED NDGA DERIVATIVES VIA ETHER BONDS AND CARBAMATE BONDS AND THEIR SYNTHESIS AND PHARMACEUTICAL USE” (ERIMOS PHARMACEUTICALS LLC, priority 2006, published 2015).

Key:
NSCLC cell lines = test: NCI DTP human tumor cell line screen, NSCLC panel; type: cell-based; details: NSCLC (8 cell lines)
From the text: (§1) The United States National Cancer Institute (NCI) provides a developmental therapeutics program (DTP) (http://dtp.nci.nih.gov/branches/btb/ivelsp.html) to screen submitted substances in support of cancer drug discovery. The In Vitro Cell Line Screening Project (IVCLSP) is a dedicated service providing direct support to the DTP anticancer drug discovery program and is designed to screen up to 3,000 compounds per year for potential anticancer activity. The operation of this screen utilizes 60 different human tumor cell lines, representing leukemia, melanoma and cancers of the lung, colon, brain, ovary, breast, prostate, and kidney. The aim is to prioritize for farther evaluation, synthetic compounds or natural product samples showing selective growth inhibition or cell killing of particular tumor cell lines. This screen is unique in that the complexity of a 60 cell line dose response produced by a given compound results in a biological response pattern which can be utilized in pattern recognition algorithms (COMPARE program. See: http://dtp.nci.nih.gov/docs/compare/compare.html). Using these algorithms, it is possible to assign a putative mechanism of action to a test compound, or to determine that the response pattern is unique and not similar to that of any of the standard prototype compounds included in the NCI database. […]

COS-7 cells = test: MTT cytotoxicity assay in COS-7 cells (run with SEAP); type: cell-based, green monkey; details: Chlorocebus sabaeus, COS-7 test cells of the SEAP assay
Method: The MTT assay is a colorimetric method for determining the number of viable cells. Metabolically active cells turn the MIT reagent, (3-(4,5-dimethylthiazol-2-yl)-2,5-diphenyltetrazolium bromide, into purple-colored formazan crystals that are solubilized in dimethyl sulfoxide (DMSO). The MTT reagent is added to MTT (colorless) media. The media is added to the cells and they are incubated for 4 hours. DMSO is added to the cells and mixed. The colored solutions are then read at 540 nm and corrected at 630 nm. The IC50 is estimated by graphing the gathered data.
The cells are analyzed by the MTT assay to compare cytotoxicity to SEAP inhibition. The goal is for the drug to inhibit SEAP without being too toxic.
The MTT assay measures cellular-proliferation and is used to verify that the levels of SEAP activity are not solely due to cytotoxicity. These assays was used in screening for potential drug compound leads as antiviral agents, and particularly, anti-HIV candidates.

CNS cell lines = test: NCI DTP human tumor cell line screen, CNS panel; type: cell-based; details: CNS (6 cell lines)
From the text: as §1

Caco-2 cell monolayers = test: Caco-2 monolayer bidirectional permeability; type: in vitro ADME, human; details: human, Caco-2, 90 min, 1 μM, pH 7.4
Method: (§2) Permeability studies were conducted by an outside contractor on behalf of the assignee of the present invention and application to determine the permeability of Compound A through Caco-2 monolayers. An important factor of oral bioavailability is the ability of e compound to be absorbed in the small intestine. Measurement of drug apparent permeability (Papp) through cell monolayers is well correlated with human intestinal absorption, and several mammalian cell lines, including Caco-2, LLC-PK1 and MDCK, are appropriate for this measurement (Artursson, P. et al., Correlation between oral drug absorption in humans and apparent drug permeability coefficients in human intestinal epithelial (Caco-2) cells. Biochem Biophys Res Comm 175:880-885 (1991); Stewart. B. H., et al., Comparison of intestinal permeabilities in multiple in vitro and in situ models: relationship to absorption in humans. Pharm Res 12:693 (1995)). P-Glycoprotein (P-gp, encoded by MDR1) is a member of the ABC transporter super family and is expressed in the human intestine, liver and other tissues. Intestinal expression of P-gp may affect the oral bioavailability of drug molecules that are substrates for this transporter. Interaction with P-gp can be studied using direct assays of drug transport in polarized cell systems such as Caco-2 cell monolayers, and human P-gp cDNA-expressing LLC-PK1 and MDCK cell monolayers. Caco-2 cells (human adenocarcinoma colonic cell line Caco-2, ATCC Cat. No. […] The cells were cultured for 21-25 days with media replacement every 3-4 days. Monolayer integrity was evaluated by pre-experimental trans-epithelial electrical resistance (TEER) measurements and post-experimental lucifer yellow A to B flux determinations. […] Receiver solution was prepared by adding 1% DMSO to transport buffer. The test solution was of Compound A in DMSO in transport buffer at a final DMSO concentration of 1%. […] The donor and receiver solutions were added to the apical or basolateral chambers of the monolayers (depending on the direction of transport to be measured). The monolayers were incubated on an orbital shaker (50 rpm) at 37° C., with ambient humidity and CO2. After 90 minutes, samples from the donor and receiver chambers were removed for analysis. […] Duplicate monolayers were used for each incubation. Samples were analyzed by LC/MS/MS using peak area ratios to an internal standard. Test article concentrations were calculated based on the peak area ratios obtained for appropriate dilutions of the donor solution containing the test article at the nominal concentration in transport buffer. Samples were diluted as appropriate to ensure that the response was within the linear range of the mass spec detector. Comparator and control samples were analyzed by liquid scintillation counting. Lucifer yellow concentrations were determined using a fluorescence plate reader.

[1] = Caco-2 monolayer bidirectional permeability; type: in vitro ADME, human; details: human
Method: as §2

Breast Cancer cell lines = test: NCI DTP human tumor cell line screen, breast cancer panel; type: cell-based; details: Breast Cancer (6 cell lines)
From the text: as §1

For `C[C@H](Cc1ccc(OCCCN2CCCCC2)c(OCCCN2CCCCC2)c1)[C@@H](C)Cc1ccc(OCCCN2CCCCC2)c(OCCCN2CCCCC2)c1` [Compound A, 1,4-bis{3,4-bis[3-(piperidin-1-yl)propoxy]phenyl}-2,3-dimethyl-(2R,3S)-butane], the “Mean Growth Percent at 10 μM” value (NSCLC cell lines) was −90.92%, the IC50 (COS-7 cells) was 700 to 900 nM and the “Mean Growth Percent at 10 μM” value (CNS cell lines) was −93.97%. The “Papp A to B” value (Caco-2 cell monolayers) was 9.61 ×10⁻⁶ cm/s, the “Papp B to A” value (Caco-2 cell monolayers) was 1.72 ×10⁻⁶ cm/s and the “Polarization Ratio [B-A/A-B]” value (Caco-2 cell monolayers) was 0.18. It also gave a Papp A→B at 90 min, 1 μM ([1]; Caco-2, pH 7.4, BCS permeability class) of 0.514 to 14.2 ×10⁻⁶ cm/s, a Papp A→B at 90 min, 1 μM ([1]; Caco-2, pH 7.4, Papp A to B) of 9.75 ×10⁻⁶ cm/s and a Papp B→A at 90 min, 1 μM ([1]; Caco-2, pH 7.4, Papp B to A) of 1.74 ×10⁻⁶ cm/s. The efflux ratio at 90 min, 1 μM ([1]; Caco-2, pH 7.4, Polarization Ratio [B-A/A-B]) was 0.1 to 0.2 and the “Mean Growth Percent at 10 μM” value (Breast Cancer cell lines) was −67.95%.
